{"source": "patent US12090137B2", "about": "“Solid Δ9-tetrahydrocannabinol (Δ9-THC) compositions” (CANNA-C[…], priority 2020, dated 2024)", "experiment": "Flowable powder formation by freeze-drying (lyophilization), Example 1", "format": "physicochemical", "protocol": "The powder former (amount based on 1:1, 1:2 or 1:4 molar Δ^9-THC:powder former ratio) was dissolved in H2O (2 mL) and, if needed, dioxane (2 mL) was added to form a solution. The powder former solution was added to the Δ^9-THC solution in the round bottom flask. The round bottom flask was then submerged in a dry ice/acetone bath or liquid nitrogen to freeze the solution while continuously rotating the flask by hand to maximize surface area and form an even, thin layer around the flask. Once frozen, the round bottom flask was attached to a LabConco lyophilizer with an Edwards RV8 vacuum pump pre-equilibrated at ^˜−50° C. Samples were left overnight (18 hrs) and removed the next day.\nΔ^9-THC and several powder formers were lyophilized using the described procedure to determine if a flowable powder would result."}
{"smiles": "CCCCCc1cc(O)c2c(c1)OC(C)(C)[C@@H]1CCC(C)=C[C@@H]21", "note": "[Δ^9-THC, (−)-trans-Δ^9-tetrahydrocannabinol]", "values": [{"measurement": "Result of lyophilizing without a powder former", "setting": "from dioxane alone", "value": "gel"}, {"measurement": "Result of lyophilizing without a powder former", "setting": "from dioxane/water (~75/25 by volume)", "value": "tacky gel"}]}
